Drawing on BindingDB's records for doi:10.1016/j.bmcl.2015.05.018 (Martin-Luther-University Halle-Wittenberg, 2015), this text covers IC50 for two compounds.

Each structure is given as a SMILES string.

Data set [1] in a line: Inhibition of human P-gp expressed in mouse T-cell lymphoma assessed as potentiation of daunorubicin-induced cellular toxicity by measuring daunorubicin IC50 at 10 uM by MTT assay (Rvb = 8.26 +/- 0.62 uM).
Data set [2] can be described thus: Inhibition of human P-gp expressed in mouse T-cell lymphoma assessed as potentiation of daunorubicin-induced cellular toxicity by measuring daunorubicin IC50 at 5 uM by MTT assay (Rvb = 8.26 +/- 0.62 uM).

With `CCOC(=O)C1=CN(Cc2ccccc2)c2ccccc2C1c1cccc(OC)c1` (stereo not drawn), the IC50 in data set [1] turned out to be 0.86 µM.
For `CCOC(=O)C1=CN(Cc2ccccc2)c2ccccc2C1c1ccc(OC)c(OC)c1` (stereo not drawn), the figures for the IC50 in data set [2] and in data set [1] were 4.76 µM and 0.39 µM, respectively.
